Measured values as given in US11214572B2, “7-site substituted pyrrole triazine compounds or pharmaceutically acceptable salts thereof, and preparation method thereof and uses thereof” (SHANGHAI INSTITUTE OF MATERIA MEDICA, CHINESE ACADEMY OF …, priority 2017, dated 2022).
“And” between values parts separate entries of the source, which are not always exact repeats. Equal entries are not always repeated. “Also recorded” adds a separate entry of the source. Where two headings read alike, the source gives them in different places.

What was measured:
[1] = Preliminary pharmacokinetic test, intravenous injection; format: in vivo, SD rats; settings: rats, intravenous injection 5 mg/kg, tested as monomesylate
Experimental: (§1) 1. 14 healthy SD rats, male, weigh 200-220 g, were taken to be randomly divided into 4 groups, 3-4 in each group, and were administered the tested compound P-17 and compound CYH33 (compared with compound P-17, missing a methyl group on 7-position) via intragastric administration (10 mg/kg) and intravenous injection (5 mg/kg) respectively, the specific arrangements are shown in the following table 3:
(§2) The rats were fasted for 12 h before experiment, water was taken freely. The rats were fed 2 h after dosing.
Dosing via intravenous: 5 min, 0.25 h, 0.5 h, 1.0 h, 2.0 h, 4.0 h, 6.0 h, 8.0 h, and 24 h after dosing.
(§3) At the above setting time points, 0.3 ml of venous blood was taken from the retroorbital venous plexus of the rat, and placed in a heparinized test tube, centrifuged at 11,000 rpm for 5 min, then the plasma was separated, and frozen in a refrigerator at −20° C.
(§4) LC/MS/MS method was used to determine the concentration of the compounds in the plasma of rats.
(§5) The non-compartment model of Phoenix 1.3 software (Pharsight Corporation, USA) was used to calculate the pharmacokinetic parameters after dosing.

[2] = Preliminary pharmacokinetic test, intragastric administration; format: in vivo, SD rats; settings: rats, 10 mg/kg versus 5 mg/kg intravenous; monomesylate
Experimental: as §1, §2
Dosing via intragastric administration: 0.25 h, 0.5 h, 1.0 h, 2.0 h, 3.0 h, 4.0 h, 6.0 h, 8.0 h, and 24 h after dosing.
as §3, §4, §5

[3] = target: PI3Kγ (Homo sapiens, UniProt P48736); assay: PI3K kinase activity, γ isoform; format: biochemical; settings: for inhibition at 0.1 µM: compound 100 nM, read-out: IH (%) @ 100 nM, γ;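 for all read-outs here: kinase reaction run in 384-well plates, with inhibition normalised between the 0% and 100% reference reactions. IC50 derived from a ten-point, fourfold serial dilution series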
Experimental: (§6) Concentration setting for preliminary screening: the compounds to be tested were dissolved in DMSO (dimethyl sulfoxide) to 100 μM or 10 μM as storage solutions; for each one, 2 μL was taken to be added to 48 μL of 1× Reaction Buffer to obtain a 4 μM or 400 nM compound solution containing 4% DMSO. After well mixing, the mixture was diluted with 4% DMSO in 1× Reaction Buffer to obtain a 4 μM or 400 nM compound solution. 5 μL of each diluted solution was taken to be added to a 384-well plate, so that the final concentration of the compound in the final 20 μL of the kinase reaction system was 1 μM and 100 nM or 100 nM and 20 nM, respectively, and containing 1% DMSO.
(§7) The compounds to be tested were dissolved in DMSO to 1 mM or 10 mM as working solutions, 1 μL of each working solution was taken to be added to 24 μl of 1× Kinase Buffer A to obtain a 40 μM or 400 μM compound solution containing 4% DMSO. The compound solution was diluted by 4× gradient in sequence, 10 dilution concentrations.
(§8) Calculation of the Inhibition Rate • The inhibitory rate was calculated by the following formula: Inhibitory rate=(ERsample−ER0%)/(ER100%−ER0%)×100%

[4] = target: PI3Kα (Homo sapiens, UniProt P42336); assay: PI3K kinase activity, α isoform; settings: for inhibition at 0.02 µM: read-out: IH (%) @ 20 nM, α
Experimental: as §6, §7, §8

[5] = target: PI3Kδ (Homo sapiens, UniProt O00329); assay: PI3K kinase activity, δ isoform; settings: for inhibition at 0.02 µM: read-out: IH (%) @ 20 nM, δ; for selectivity for PI3Kδ (in words): versus other PI3K isoforms, from Tables 1 and 2
Experimental: as §6, §7, §8

[6] = target: PI3Kβ (Homo sapiens, UniProt P42338); assay: PI3K kinase activity, β isoform; settings: for inhibition at 0.1 µM: read-out: IH (%) @ 100 nM, β;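 for all read-outs here: kinase reaction containing 1% DMSO, read as an emission ratio, with inhibition scaled between the 0% and 100% control ratios. IC50 values come from a ten-point fourfold dilution series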
Experimental: as §6, §7, §8

[7] = male, SD, rat, plasma, iv, 5 mg/kg, individual animal

Chain of PI3Kβ (P42338 whole entry, canonical isoform): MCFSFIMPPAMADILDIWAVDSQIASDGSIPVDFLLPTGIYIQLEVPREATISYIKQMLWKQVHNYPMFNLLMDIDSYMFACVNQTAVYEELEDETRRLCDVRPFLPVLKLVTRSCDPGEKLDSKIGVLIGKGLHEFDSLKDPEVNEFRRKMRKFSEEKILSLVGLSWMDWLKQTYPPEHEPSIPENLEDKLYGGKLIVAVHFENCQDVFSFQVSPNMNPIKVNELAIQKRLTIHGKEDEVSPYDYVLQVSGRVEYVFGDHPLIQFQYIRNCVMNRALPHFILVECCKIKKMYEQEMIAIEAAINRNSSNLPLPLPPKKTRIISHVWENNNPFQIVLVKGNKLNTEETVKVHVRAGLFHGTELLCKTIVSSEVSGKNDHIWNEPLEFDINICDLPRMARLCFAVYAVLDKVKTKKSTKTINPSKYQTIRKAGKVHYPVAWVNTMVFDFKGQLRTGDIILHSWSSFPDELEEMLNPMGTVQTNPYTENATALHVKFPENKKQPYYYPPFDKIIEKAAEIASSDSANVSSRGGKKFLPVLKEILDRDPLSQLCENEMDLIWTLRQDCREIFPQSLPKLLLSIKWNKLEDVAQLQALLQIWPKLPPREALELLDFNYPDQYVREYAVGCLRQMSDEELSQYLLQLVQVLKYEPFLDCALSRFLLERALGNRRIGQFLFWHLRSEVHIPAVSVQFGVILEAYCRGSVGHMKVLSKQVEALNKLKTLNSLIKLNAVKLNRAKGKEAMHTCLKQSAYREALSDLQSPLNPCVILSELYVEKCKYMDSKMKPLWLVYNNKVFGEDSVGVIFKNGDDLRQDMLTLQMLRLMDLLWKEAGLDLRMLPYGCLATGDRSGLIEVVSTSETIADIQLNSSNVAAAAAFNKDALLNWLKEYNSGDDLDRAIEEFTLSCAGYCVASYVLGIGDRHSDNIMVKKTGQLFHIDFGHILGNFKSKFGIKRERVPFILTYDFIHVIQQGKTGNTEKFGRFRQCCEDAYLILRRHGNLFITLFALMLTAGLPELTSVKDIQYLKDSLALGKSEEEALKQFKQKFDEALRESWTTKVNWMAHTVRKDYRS
Chain of PI3Kβ (P27986 whole entry partner, canonical isoform): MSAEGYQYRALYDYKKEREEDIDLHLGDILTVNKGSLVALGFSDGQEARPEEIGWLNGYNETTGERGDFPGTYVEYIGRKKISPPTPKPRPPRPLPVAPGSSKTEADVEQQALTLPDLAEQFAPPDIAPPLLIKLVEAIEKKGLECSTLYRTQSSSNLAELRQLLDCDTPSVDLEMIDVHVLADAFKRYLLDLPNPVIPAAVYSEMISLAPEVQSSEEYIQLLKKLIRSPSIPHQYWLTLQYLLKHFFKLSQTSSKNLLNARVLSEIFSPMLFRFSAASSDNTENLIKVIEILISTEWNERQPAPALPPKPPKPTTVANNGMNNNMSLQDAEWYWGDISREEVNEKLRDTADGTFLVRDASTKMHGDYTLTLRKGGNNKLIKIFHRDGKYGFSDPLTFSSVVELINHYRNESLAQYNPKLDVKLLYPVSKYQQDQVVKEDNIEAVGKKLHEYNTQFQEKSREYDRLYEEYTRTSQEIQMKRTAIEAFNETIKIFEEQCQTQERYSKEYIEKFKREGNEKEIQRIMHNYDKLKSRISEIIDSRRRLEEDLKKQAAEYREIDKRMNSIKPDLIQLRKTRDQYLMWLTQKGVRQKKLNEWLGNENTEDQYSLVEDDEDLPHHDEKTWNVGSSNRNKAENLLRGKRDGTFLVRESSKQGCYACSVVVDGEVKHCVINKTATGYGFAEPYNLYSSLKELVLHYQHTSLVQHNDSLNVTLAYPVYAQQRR
Chain of PI3Kα (P42336 whole entry, canonical isoform): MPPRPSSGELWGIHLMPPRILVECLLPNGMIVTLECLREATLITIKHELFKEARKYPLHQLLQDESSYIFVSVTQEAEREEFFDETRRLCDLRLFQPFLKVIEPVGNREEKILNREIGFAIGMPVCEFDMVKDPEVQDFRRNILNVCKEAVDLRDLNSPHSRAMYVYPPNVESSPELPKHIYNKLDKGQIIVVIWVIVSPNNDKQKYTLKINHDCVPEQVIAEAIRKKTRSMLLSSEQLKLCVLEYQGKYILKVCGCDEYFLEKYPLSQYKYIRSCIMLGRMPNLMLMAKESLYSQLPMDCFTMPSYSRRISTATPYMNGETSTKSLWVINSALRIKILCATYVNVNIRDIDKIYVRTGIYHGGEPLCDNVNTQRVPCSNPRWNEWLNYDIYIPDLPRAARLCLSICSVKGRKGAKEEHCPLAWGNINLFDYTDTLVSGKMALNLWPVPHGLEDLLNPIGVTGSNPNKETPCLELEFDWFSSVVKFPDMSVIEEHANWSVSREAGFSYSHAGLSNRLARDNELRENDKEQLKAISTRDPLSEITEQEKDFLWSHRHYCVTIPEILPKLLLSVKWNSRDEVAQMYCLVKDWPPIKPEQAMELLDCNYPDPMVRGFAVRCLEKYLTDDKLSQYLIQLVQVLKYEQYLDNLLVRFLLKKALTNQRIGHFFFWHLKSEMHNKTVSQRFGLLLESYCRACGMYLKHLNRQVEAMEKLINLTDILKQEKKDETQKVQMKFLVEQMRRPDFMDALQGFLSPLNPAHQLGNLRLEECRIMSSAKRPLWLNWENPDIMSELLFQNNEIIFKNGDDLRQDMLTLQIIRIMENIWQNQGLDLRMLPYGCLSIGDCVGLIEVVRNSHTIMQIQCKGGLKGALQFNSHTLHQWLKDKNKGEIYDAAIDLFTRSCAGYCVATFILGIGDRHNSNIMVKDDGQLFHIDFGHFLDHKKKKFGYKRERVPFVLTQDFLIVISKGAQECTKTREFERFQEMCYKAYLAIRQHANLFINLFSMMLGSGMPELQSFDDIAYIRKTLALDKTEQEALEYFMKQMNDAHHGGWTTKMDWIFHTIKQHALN
Chain of PI3Kα (P27986 whole entry partner, canonical isoform): as the sequence (P27986 whole entry partner, canonical isoform) above
Chain of PI3Kδ (O00329 whole entry, canonical isoform): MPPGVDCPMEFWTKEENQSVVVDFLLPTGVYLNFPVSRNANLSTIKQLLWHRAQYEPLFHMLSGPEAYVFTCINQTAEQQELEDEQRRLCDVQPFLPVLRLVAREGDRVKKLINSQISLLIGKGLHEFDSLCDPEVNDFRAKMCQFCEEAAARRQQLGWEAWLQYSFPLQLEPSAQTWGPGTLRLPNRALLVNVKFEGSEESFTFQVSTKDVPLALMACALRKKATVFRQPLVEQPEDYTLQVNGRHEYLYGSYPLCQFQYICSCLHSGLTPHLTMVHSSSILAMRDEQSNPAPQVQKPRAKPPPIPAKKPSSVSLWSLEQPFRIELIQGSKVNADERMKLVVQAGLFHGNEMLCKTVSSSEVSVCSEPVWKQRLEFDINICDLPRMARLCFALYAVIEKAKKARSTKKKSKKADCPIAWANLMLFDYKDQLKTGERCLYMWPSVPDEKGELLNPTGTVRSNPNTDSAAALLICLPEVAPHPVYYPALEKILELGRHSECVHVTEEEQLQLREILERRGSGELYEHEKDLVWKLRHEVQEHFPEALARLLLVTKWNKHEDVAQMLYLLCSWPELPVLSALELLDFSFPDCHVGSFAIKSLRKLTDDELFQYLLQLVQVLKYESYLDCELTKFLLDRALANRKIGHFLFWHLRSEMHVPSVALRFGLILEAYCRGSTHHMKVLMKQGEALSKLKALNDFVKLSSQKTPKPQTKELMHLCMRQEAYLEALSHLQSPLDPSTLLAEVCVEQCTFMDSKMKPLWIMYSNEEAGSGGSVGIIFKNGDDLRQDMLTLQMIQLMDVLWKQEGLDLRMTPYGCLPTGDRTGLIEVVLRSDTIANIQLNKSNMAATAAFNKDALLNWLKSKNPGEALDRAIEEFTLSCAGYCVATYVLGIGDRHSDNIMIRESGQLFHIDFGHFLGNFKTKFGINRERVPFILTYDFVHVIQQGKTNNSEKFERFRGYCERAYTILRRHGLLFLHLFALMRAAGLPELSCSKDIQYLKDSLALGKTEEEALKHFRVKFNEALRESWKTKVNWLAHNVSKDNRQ
Chain of PI3Kδ (P27986 whole entry partner, canonical isoform): as the sequence (P27986 whole entry partner, canonical isoform) above
Chain of PI3Kγ (P48736 whole entry, canonical isoform): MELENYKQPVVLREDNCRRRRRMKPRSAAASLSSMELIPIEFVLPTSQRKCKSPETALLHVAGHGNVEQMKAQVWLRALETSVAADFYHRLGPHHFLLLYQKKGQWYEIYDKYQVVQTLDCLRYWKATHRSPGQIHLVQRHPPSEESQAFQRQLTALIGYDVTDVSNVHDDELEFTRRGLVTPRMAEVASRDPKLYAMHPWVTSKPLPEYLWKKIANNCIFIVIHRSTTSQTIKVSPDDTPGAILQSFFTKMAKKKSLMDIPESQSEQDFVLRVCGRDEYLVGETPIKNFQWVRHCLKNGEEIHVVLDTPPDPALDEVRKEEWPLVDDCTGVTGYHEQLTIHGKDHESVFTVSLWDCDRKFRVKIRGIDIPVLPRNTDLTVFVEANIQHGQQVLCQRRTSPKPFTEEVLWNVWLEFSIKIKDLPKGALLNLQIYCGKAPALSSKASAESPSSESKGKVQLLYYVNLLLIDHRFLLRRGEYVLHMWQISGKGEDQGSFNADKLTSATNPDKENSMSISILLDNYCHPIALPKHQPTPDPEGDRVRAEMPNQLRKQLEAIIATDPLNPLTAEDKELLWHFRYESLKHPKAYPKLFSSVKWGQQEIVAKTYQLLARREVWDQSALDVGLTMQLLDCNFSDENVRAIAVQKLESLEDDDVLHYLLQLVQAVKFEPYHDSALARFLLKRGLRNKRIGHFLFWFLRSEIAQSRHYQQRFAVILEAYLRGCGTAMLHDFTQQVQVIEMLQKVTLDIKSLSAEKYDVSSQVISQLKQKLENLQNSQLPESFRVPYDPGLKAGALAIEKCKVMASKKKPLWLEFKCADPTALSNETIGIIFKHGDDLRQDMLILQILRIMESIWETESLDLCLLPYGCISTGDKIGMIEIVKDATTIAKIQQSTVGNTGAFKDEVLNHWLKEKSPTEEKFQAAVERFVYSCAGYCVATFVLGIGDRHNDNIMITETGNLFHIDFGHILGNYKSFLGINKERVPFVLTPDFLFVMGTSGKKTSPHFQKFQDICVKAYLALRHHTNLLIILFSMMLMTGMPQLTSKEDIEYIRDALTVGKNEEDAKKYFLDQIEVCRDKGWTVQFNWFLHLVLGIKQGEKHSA

SMILES | IC50 [3] [nM] | inhibition at 0.1 µM [3] [%] | IC50 [4] [nM] | inhibition at 0.02 µM [4] [%] | IC50 [5] [nM] | inhibition at 0.02 µM [5] [%] | IC50 [6] [nM] | inhibition at 0.1 µM [6] [%] | selectivity for PI3Kδ (in words) [5] | further results
COC(=O)Nc1cc(C(F)(F)F)c(-c2nc(N3CCOCC3)c3cc(CN4CCN(S(C)(=O)=O)CC4)cn3n2)cn1 [CYH33, reference compound] | – | – | – | – | – | – | – | – | – | AUC(0-t) ([1]; male, SD, rat, plasma, iv, 5 mg/kg, Mean): 3540 ng·h/mL; MRT ([1]; male, SD, rat, plasma, iv, 5 mg/kg, Mean, read-out: MRT): 1.31 h; AUC(0-inf) [1, 7]: 2850 ng·h/mL; AUC(0-t) [1, 7]: 2850 ng·h/mL; clearance [1, 7]: 29.2 mL/min/kg; half-life [1, 7]: 49.8 min; MRT ([1]; male, SD, rat, plasma, iv, 5 mg/kg, individual animal, read-out: MRT): 1.1 h; Vd ([1]; male, SD, rat, plasma, iv, 5 mg/kg, individual animal, read-out: Vss): 1.93 L/kg; AUC 0 − ∞ ([1]; Mean): 3559 ng·h/mL; Cl ([1]; Mean): 1.44 L/h/kg; T1/2 ([1]; Mean): 58.9 min; Vss ([1]; Mean): 1.843 L/kg; AUC 0 − t ([1]; individual animal, 5 mg/kg): 3645 ng·h/mL and 4142 ng·h/mL; AUC 0 − ∞ ([1]; individual animal, 5 mg/kg): 3655 ng·h/mL and 4172 ng·h/mL; Cl ([1]; individual animal, 5 mg/kg): 1.37 L/h/kg and 1.2 L/h/kg; MRT ([1]; individual animal, 5 mg/kg): 1.26 h and 1.57 h; T1/2 ([1]; individual animal, 5 mg/kg): 57 min and 69.6 min; Vss ([1]; individual animal, 5 mg/kg): 1.72 L/kg and 1.88 L/kg; F (absolute bioavailability) [2]: 36.9%
Cc1c(CNCCCN(C)C)cc2c(N3CCOCC3)nc(-c3cnc(N)cc3C(F)(F)F)nn12 [Compound P-2] | 37600 | 0.62 | 321 | 18.7 | 36.6 | 46 | 2140 | 4.74 | – | –
COCCCNCc1cc2c(N3CCOCC3)nc(-c3cnc(N)cc3C(F)(F)F)nn2c1C [Compound P-3] | – | 2.94 | – | 6.72 | – | 39.8 | – | -0.12 | – | –
Cc1c(CN2CCC(N(C)C)CC2)cc2c(N3CCOCC3)nc(-c3cnc(N)cc3C(F)(F)F)nn12 [Compound P-7] | 15300 | -7.96 | 439 | 3.6 | 27.6 | 53.6 | 3460 | 3.43 | selective inhibitory effect on PI3Kδ; also recorded: good selectivities for PI3Kδ | –

More lines, in order of falling IC50 [3], values ahead:

IC50 [3] [nM] | inhibition at 0.1 µM [3] [%] | IC50 [4] [nM] | inhibition at 0.02 µM [4] [%] | IC50 [5] [nM] | inhibition at 0.02 µM [5] [%] | IC50 [6] [nM] | inhibition at 0.1 µM [6] [%] | SMILES | selectivity for PI3Kδ (in words) [5] | further results
9870 | -4.8 | 624 | 69.7 | 35.3 | 41.4 | 4570 | 11.8 | CCN1CCN(Cc2cc3c(N4CCOCC4)nc(-c4cnc(N)cc4C(F)(F)F)nn3c2C)CC1 [Compound P-6] | selective inhibitory effect on PI3Kδ; also recorded: good selectivities for PI3Kδ | –
4830 | -2.33 | 424 | -0.6 | 19.6 | 53.2 | 1360 | 14.9 | Cc1c(CN2CCC(C(C)(C)O)CC2)cc2c(N3CCOCC3)nc(-c3cnc(N)cc3C(F)(F)F)nn12 [Compound P-5] | selective inhibitory effect on PI3Kδ; also recorded: good selectivities for PI3Kδ | –
283 | 31.4 | 26.4 | 68.9 | 23.7 | 51.2 | 1190 | 12.8 | Cc1c(CN2CCN(S(C)(=O)=O)CC2)cc2c(N3CCOCC3)nc(-c3cnc(N)cc3C(F)(F)F)nn12 [Compound P-9] | – | –
202 | 32.1 | 104 | 80.5 | 79.7 | 39.7 | 1770 | 7.84 | Cc1c(CN2CCN(S(C)(=O)=O)CC2)cc2c(N3CCOC[C@@H]3C)nc(-c3cnc(N)cc3C(F)(F)F)nn12 [Compound P-10] | – | –
